In publication PMC6838683, “Discovery of Human Signaling Systems: Pairing Peptides to G Protein-Coupled Receptors” (Cell, 2019):
No end group written: not given here.

How the values were obtained:
[1] = target: T1, GPR15 (human) (UniProt P49685)
T1 sequence: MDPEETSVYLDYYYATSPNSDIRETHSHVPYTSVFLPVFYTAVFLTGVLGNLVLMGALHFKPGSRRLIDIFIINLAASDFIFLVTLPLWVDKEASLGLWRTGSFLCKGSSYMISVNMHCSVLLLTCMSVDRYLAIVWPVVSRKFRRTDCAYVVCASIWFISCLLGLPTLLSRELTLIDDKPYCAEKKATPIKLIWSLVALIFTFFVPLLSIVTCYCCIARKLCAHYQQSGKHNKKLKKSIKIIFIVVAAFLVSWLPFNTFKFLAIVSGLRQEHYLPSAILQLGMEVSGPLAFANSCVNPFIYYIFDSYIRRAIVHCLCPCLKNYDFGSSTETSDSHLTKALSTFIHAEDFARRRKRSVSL

[2] = target: T2, GPR1 (Homo sapiens, UniProt P46091); experiment: Real-time receptor internalization, validation; format: cell-based; set-up: host or cells: HTLA cells (HEK293-derived)
T2 sequence (P46091 1-355): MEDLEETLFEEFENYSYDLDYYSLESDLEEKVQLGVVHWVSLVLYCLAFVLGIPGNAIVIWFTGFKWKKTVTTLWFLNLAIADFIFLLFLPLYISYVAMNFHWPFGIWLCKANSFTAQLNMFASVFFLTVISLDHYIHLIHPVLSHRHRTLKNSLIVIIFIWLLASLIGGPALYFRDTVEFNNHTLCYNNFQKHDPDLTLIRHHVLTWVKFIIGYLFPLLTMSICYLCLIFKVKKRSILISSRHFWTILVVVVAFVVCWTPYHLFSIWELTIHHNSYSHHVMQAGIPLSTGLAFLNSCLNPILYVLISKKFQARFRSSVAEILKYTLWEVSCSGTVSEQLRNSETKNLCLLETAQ
From the text: (§1) Supplement mmc7.xlsx, sheet "Peptide validation data" | column: Comment

[3] = target: T2, GPR1; experiment: β-arrestin recruitment (Tango), validation; format: cell-based; set-up: host or cells: HTLA cells (HEK293-derived)
[4] = target: T2, GPR1; experiment: β-arrestin recruitment (PathHunter); format: cell-based; conditions: for Emax, PathHunter (fold over basal) / pEC50, PathHunter (fold over basal): GPR1, mean, SEM and n
Protocol: PathHunter eXpress Assays (DiscoverX) were performed in 384-well format according to the manufacturer’s recommendations. GPR1 cells were incubated with peptides for 90 min and luminescence measured using an EnSpire 2300 Multimode plate reader (PerkinElmer).

[5] = target: T2, GPR1; experiment: Dynamic mass redistribution (DMR), validation; format: cell-based; set-up: host or cells: HTLA cells (HEK293-derived)
From the text: as §1

[6] = target: T3, melanocortin MC4 receptor (Homo sapiens, UniProt P32245); experiment: β-arrestin recruitment (Tango), known peptide receptors; format: cell-based; conditions: MC4R; mean, n = 3
T3 construct: host or cells: HTLA cells (HEK293-derived)
Protocol: (§2) The peptide library was additionally screened against 120 GPCR targets in parallel, including all available orphan receptors and 27 known class A peptide receptors using the Tango assay platform ([Kroeze et al., 2015]). Briefly, HTLA cells (a HEK293 cell line stably expressing a tTA-dependent luciferase reporter and a β-arrestin2-TEV fusion gene) were plated 10,000 cells/well in poly-L-lysine–coated clear-bottom white 384-well plates in DMEM supplemented with 10% FBS, 100 U/ml penicillin and 100 μg/ml streptomycin, 2 μg/ml puromycin and 100 μg/ml hygromycin B. 24 hr later, cells were transfected with Tango GPCR constructs using the calcium phosphate method ([Jordan et al., 1996]). The next day, culture medium was changed to DMEM + 1% dFBS and 10 μM peptides were added for overnight stimulation. Bright-Glo solution (Promega) was incubated for 15–20 min at room temperature, and luminescence was counted using a Trilux luminescence counter (Wallac).
(§3) For subsequent peptide validation experiments using Tango assays, HTLA cells were transiently transfected in 10 cm dishes with the receptor of interest using polyethylenimine (PEI) ([Longo et al., 2013]). After 24 hr, 25,000 cells/well were plated in clear bottom, white-walled 384-well plates. Assays were performed as described above, with luminescence measured using an EnSpire 2300 Multimode plate reader (PerkinElmer). Luminescence counts were exported into Excel and were analyzed using GraphPad Prism 7.

[7] = system: human GPCRs; set-up: method as in Guide to Pharmacology database; conditions: receptor gasr_human (CCKBR, P32239); max reported value; ref Guide to Pharmacology database; cited from earlier work
From the text: Supplement mmc1.xlsx, sheet "HumanGPCRLigands" | column: pKi_value; pKd_value; pEC50_value; pIC50_value

[8] = system: NPFF2; experiment: β-arrestin recruitment (Tango), known peptide receptors; format: cell-based, human; conditions: endogenous ligand(s) included in peptide library
From the text: Supplement mmc6.xlsx, sheet "Peptide GPCR controls" | column: Confirmed?

[9] = target: T4, GPR176 (Homo sapiens, UniProt Q14439); experiment: β-arrestin recruitment (Tango), indicative pairing; format: cell-based; conditions: mean, n = 3
T4 construct: host or cells: HTLA cells (HEK293-derived)
T4 sequence (Q14439 1-515): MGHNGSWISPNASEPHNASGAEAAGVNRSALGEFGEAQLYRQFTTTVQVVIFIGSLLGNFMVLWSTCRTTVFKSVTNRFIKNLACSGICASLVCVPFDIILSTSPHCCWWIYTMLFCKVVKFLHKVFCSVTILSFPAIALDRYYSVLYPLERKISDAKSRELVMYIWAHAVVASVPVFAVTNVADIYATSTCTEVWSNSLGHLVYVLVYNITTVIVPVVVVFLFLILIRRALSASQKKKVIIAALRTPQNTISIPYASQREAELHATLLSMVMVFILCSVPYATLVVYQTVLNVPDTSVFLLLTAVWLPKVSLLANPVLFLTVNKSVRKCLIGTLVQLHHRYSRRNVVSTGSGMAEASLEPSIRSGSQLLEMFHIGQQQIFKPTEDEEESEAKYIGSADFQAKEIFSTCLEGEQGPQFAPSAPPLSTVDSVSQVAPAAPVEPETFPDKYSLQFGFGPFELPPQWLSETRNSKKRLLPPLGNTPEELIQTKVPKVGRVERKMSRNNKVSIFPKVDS
Protocol: as §2, §3

T3 sequence (P32245 whole entry): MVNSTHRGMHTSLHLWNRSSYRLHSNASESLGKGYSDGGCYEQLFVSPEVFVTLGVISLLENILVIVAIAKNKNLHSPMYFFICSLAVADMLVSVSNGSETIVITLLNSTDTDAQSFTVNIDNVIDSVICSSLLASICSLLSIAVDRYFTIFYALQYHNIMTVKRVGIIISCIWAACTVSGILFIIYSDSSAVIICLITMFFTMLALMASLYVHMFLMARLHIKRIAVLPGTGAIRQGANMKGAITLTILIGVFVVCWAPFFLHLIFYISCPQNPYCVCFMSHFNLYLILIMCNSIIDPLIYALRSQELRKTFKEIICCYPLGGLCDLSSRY

45-amino acid cleavage variant of GPR15L (peptide)
fold improved potency at GPR15 against the 11-amino acid peptide 64 (assay not given) [1]: 10 fold

CSCC[C@H](NC(=O)[C@H](Cc1c[nH]c2ccccc12)NC(=O)CNC(=O)[C@H](Cc1ccc(O)cc1)NC(=O)[C@H](C)NC(=O)[C@H](CCC(=O)O)NC(=O)[C@H](CCC(=O)O)NC(=O)[C@H](CCC(=O)O)NC(=O)[C@H](CCC(=O)O)NC(=O)[C@H](CCC(=O)O)NC(=O)[C@H](CC(C)C)NC(=O)[C@H](Cc1c[nH]c2ccccc12)NC(=O)[C@@H]1CCCN1C(=O)CNC(=O)[C@@H](N)CCC(N)=O)C(=O)N[C@@H](CC(=O)O)C(=O)N[C@@H](Cc1ccccc1)C(N)=O [Peptide 118, Gastrin-17, reference compound]
Comment on response, Internalization (AUC); Emax and pEC50 n.d. [2]: No response; known CCK receptor agonist | Emax, Tango (fold over basal) ([3]; GPR1, mean, SEM and n): 9.8 fold over basal | EC50 ([3]; HTLA cells transiently transfected, overnight stimulation, luciferase, mean ± SEM of 3-4 independent experiments in triplicate, read-out: pEC50, β-arrestin recruitment (Tango), GPR1 (converted)): > 10 µM | EC50 ([3]; pEC50, Tango (fold over basal), GPR1, mean, SEM and n): 102 µM | Emax, PathHunter (fold over basal) [4]: 3.5 fold over basal | pEC50, PathHunter (fold over basal) [4]: 5.24 | EC50 ([4]; PathHunter eXpress GPR1 cells, 90 min, luminescence, mean ± SEM of 3-4 independent experiments in triplicate, read-out: pEC50, β-arrestin recruitment (PathHunter), GPR1 (converted)): 6.31 µM | Comment on response, DMR (AUC); Emax and pEC50 n.d. [5]: No response; known CCK receptor agonist

ELEGEQPDGLEHVLEPDTEKADGPYRVEHFRWGNPPKD [Peptide 205]
Emax, Tango (fold over basal) [6]: 4.9 fold over basal | pEC50, Tango (fold over basal) [6]: 6.21

HSQGTFTSDYSKYLDS [Peptide 110]
Emax, Tango (fold over basal) [6]: 4.2 fold over basal | pEC50, Tango (fold over basal) [6]: 5.93

KAPSGRMSIVKNLQNLDPSHRISDRDYMGWMDF [Peptide 194, cholecystokinin (CCK-33), reference compound]
pIC50_value [7]: 8.8 | Comment on response, Internalization (AUC); Emax and pEC50 n.d. [2]: No response; Known CCK receptor agonist | Emax, Tango (fold over basal) ([3]; GPR1, mean, SEM and n): 15.0 fold over basal | pEC50, Tango (fold over basal) ([3]; GPR1, mean, SEM and n): 5.28 | Emax, PathHunter (fold over basal) [4]: 5.7 fold over basal | pEC50, PathHunter (fold over basal) [4]: 8.01 | Comment on response, DMR (AUC); Emax and pEC50 n.d. [5]: No response; Known CCK receptor agonist

KRSFSGFGSPLDRLSAGSVDHK [Processed Osteocrin_(-2-19)]
Comment on response, Internalization (AUC); Emax and pEC50 n.d. [2]: No response | Emax, Tango (fold over basal) ([3]; GPR1, mean, SEM and n): 14.4 fold over basal | pEC50, Tango (fold over basal) ([3]; GPR1, mean, SEM and n): 5.60 | Emax, PathHunter (fold over basal) [4]: 8.0 fold over basal | pEC50, PathHunter (fold over basal) [4]: 6.18 | Comment on response, DMR (AUC); Emax and pEC50 n.d. [5]: No response

Neuropeptide NPVF; RFRP-3
Confirmed? (confirmation of b-arrestin recruitment) [8]: No

Neuropeptide RFRP-1 (MPHSFANLPLRF-NH2)
Confirmed? (confirmation of b-arrestin recruitment) [8]: No

Neuropeptide SF (SQAFLFQPQRF-NH2)
Confirmed? (confirmation of b-arrestin recruitment) [8]: No

RSVNPYLQ [Peptide 32]
Emax, Tango (fold over basal) [9]: 2.3 fold over basal | pEC50, Tango (fold over basal) [9]: 5.82

peptide 64 (GPR15L_(47-57))
pEC50 of reduced cyclic AMP (cAMP) production (Gi/o) [1]: 6.72 pEC50

B1: GPR15L (ligand)
peptide: KRRPAKAWSGRRTRLCCHRVPSPNSTNLKGHHVRLCKPCKLEPEPRLWVVPGALPQV
modifications: disulfide (positions not given here)
fold improved potency at GPR15 against the 11-amino acid peptide 64 (assay not given) [1]: 100 fold
